Experimental data reported in publication PMC7052167, “TCR–pMHC bond conformation controls TCR ligand discrimination” (Cellular and Molecular Immunology, 2019).

Key:
Assay type in all cases: cell-based, mouse
[1] = system: TCR–CD3ζ complex of 5C.C7 T cells; test: Transmembrane TCR–CD3ζ FRET2 (GFP/Alexa Fluor 568), intramolecular TCR–CD3ζ distance; details: 10 μM PP2
Excerpt: To determine the conformation of a single TCR–pMHC bond, a TCR and a pMHC were site-specifically labeled with the FRET acceptor Cy5 and the FRET donor Cy3, respectively.[8] The peptide within the MHC molecule was labeled with Cy3, and the TCR was labeled with the anti-TCR single-chain variable fragment (scFv) J1-Cy5 (Fig. 1a and Fig. S1a). The intermolecular distance between Cy3 and Cy5 provided a reasonable approximation of the conformation (or compactness) of the TCR–pMHC bond. The conformation of a single TCR–pMHC bond on the cell surface was measured by Cy3/Cy5 FRET (FRET1) (Fig. 1a) in real time by total internal reflection fluorescence (TIRF) microscopy (Fig. S1b). The Cy3/Cy5 inter-dye distance of a TCR–pMHC bond is denoted as the TCR–pMHC bond distance to describe the TCR–pMHC bond conformation in the following paragraphs. […] The real-time intramolecular distances of the TCR–CD3ζ complexes were measured by GFP/Alexa Fluor 568 FRET (FRET2) (Fig. 1a) using epifluorescence time-lapse microscopy (Fig. S1b).
It is not clear what induces the dissociation of CD3ζ from the membrane to initiate T-cell intracellular signaling. […] We tracked and measured the FRET efficiencies of each individual microcluster in real time. […]

5C.C7 T cell = test: T-cell calcium signaling (fluorescence imaging); details: 10 μM PP2; X-Rhod-5F indicator, 37 °C
Excerpt: To understand how the TCR–pMHC bond conformation triggers T-cell signaling, we devised a fluorescence micropipette assay to measure real-time T-cell calcium signaling at the single-cell level. Fast single T-cell calcium flux was observed upon T cell/APC contact (bond formation). Consistently, the calcium signaling amplitude and speed were dependent on the peptide potency (Fig. 5e, f, Fig. S15, and Movie S7). To link the TCR conformational change to TCR signaling, we simultaneously plotted the association of the TCR–CD3ζ conformational change with the Ca^2+ signal against the stimulation time. […] Ca^2+ release in turn drives the dissociation of positively charged CD3ζ from the negatively charged phospholipids in the plasma membrane[32] to expose the CD3ζ ITAM domains for phosphorylation via a Ca^2+ signaling feedback loop (Fig. 5h).
(§1) To measure the TCR–pMHC bond distance by smFRET in the absence of CD4 binding, T cells were incubated with 10 μg/mL anti-CD4 antibody (GK 1.5, Biolegend) and 0.027 µg/µL of Cy5-J1 scFV for 30 min at 4 °C. After three washes, the cells were added to a lipid bilayer containing Cy3-pMHCs, and smFRET assays were performed in the continuous presence of 10 μg/mL anti-CD4 antibody at 37 °C using TIRF microscopy. […]

[2] = system: TCR microclusters of 5C.C7 T cells; test: TCR microcluster formation at the T-cell synapse; details: 10 μM PP2
Excerpt: TCRs form microclusters upon antigen stimulation (Movie S4). To measure the conformational dynamics of single TCR–pMHC bonds without possible interference from TCR microclusters, we used latrunculin A (LA) to prevent the formation of TCR microclusters during smFRET measurements. […] We then performed smFRET in the absence of TCR microclusters.
To test whether TCR–CD3ζ conformational changes were dependent on TCR signaling, we used an Src kinase inhibitor PP2[27] to block TCR signaling. Consistent with the results of a previous study,[21] […] To reveal the role of TCR signaling in TCR–CD3ζ conformational changes, we plotted the time trajectories of the normalized intramolecular TCR–CD3ζ distances against the stimulation time in the absence and presence of PP2 (Fig. 4d). In the absence of PP2, the intracellular CD3ζ chain quickly separated from the TCR extracellular domain upon TCR engagement with the K5 pMHC and then reached a stable, fully extended TCR–CD3ζ conformation.
as §1

CC(C)(C)n1nc(-c2ccc(Cl)cc2)c2c(N)ncnc21 [PP2]
effect of PP2 on TCR–CD3ζ conformational change ([1]; K5 pMHC, 37 °C): completely abolished the TCR-CD3 conformational change | effect of PP2 on TCR–CD3ζ conformational change (MCC and 102S) ([1]; MCC and 102S pMHCs, Fig. S11): this effect of TCR signaling was also found | effect of PP2 on T-cell calcium signaling (5C.C7 T cell): completely abrogated T-cell calcium signaling | effect of PP2 on TCR microcluster formation [2]: TCRs could still form microclusters
